Measurements from patent EP4631959A2, “NOVEL MINIGASTRIN-DERIVED CHOLECYSTOKININ 2 RECEPTOR BINDING MOLECULES FOR IMAGING AND TARGETED RADIOTHERAPY” (priority 2022, dated 2024).
Like-named read-outs stand apart in the source and are kept apart here. Blank lines part the entries; values can stand above or below the molecule they belong to. Starred links: 1 amine or outer side, 2 acyl side, 3 side chain; linkers in the order of their positions; H or OH if unused. Non-standard residues stand in square brackets, D forms with d. Residues, ends and D or L forms follow the SMILES beside them. *: point of attachment. X5 = O=C(O)CN1CCN(CC(=O)O)CCN([C@@H](CCC(=O)*)C(=O)O)CCN(CC(=O)O)CC1; X2 = O=C(O)CN1CCN(CC(=O)O)CCN([C@H](CCC(=O)*)C(=O)O)CCN(CC(=O)O)CC1; Benzoyl(4-SiFtBu2) = CC(C)(C)[Si](F)(c1ccc(C(=O)*)cc1)C(C)(C)C; DOTA = O=C(O)CN1CCN(CC(=O)O)CCN(CC(=O)*)CCN(CC(=O)O)CC1; d(γGlu) = O=C(O)[C@@H](CCC(=O)[*:2])N[*:1]; Bip = N[C@@H](Cc1ccc(-c2ccccc2)cc1)C(=O)O; 1Nal = N[C@@H](Cc1cccc2ccccc12)C(=O)O; PEG5 = NCCOCCOCCOCCOCCOCCC(=O)O; NMeNle = CCCC[C@H](NC)C(=O)O; PEG4 = NCCOCCOCCOCCOCCC(=O)O; Nle = CCCC[C@H](N)C(=O)O; Dap = NC[C@H](N)C(=O)O

Target: T1, CCK-2R (Rattus norvegicus, UniProt P30553)
T1 construct: The CCK-2R expressing rat pancreatic tumor cells AR4-2J; host or cells: AR4-2J rat pancreatic tumor cells
T1 sequence (P30553 1-452): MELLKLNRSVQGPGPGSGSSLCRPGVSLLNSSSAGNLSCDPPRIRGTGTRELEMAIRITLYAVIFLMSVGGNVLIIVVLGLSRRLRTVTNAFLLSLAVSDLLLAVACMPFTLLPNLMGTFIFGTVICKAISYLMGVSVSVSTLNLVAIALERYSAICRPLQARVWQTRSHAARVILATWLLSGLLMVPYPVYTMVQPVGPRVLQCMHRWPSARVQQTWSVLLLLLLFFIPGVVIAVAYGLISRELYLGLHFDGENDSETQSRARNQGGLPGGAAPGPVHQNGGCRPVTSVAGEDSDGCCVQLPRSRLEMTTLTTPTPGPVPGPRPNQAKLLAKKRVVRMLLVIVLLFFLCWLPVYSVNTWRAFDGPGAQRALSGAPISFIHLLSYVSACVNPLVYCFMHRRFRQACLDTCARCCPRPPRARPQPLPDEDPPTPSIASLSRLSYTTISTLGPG
Test: Determination of IC50: CCK-2R affinity on AR4-2J cells, competition with [^177Lu]Lu-DOTA-PP-F11N
Type: binding
Protocol: AR4-2J cells were harvested 24 ± 2 h before the experiment and seeded in 24-well plates (2.0 × 10^5 cells in 1 mL/well). After removal of the nutrient medium (RPMI 1640, 5 mM L-Gln, 5 mL non-essential amino acids (100×), 10% FCS), the cells were washed once with 500 µL PBS. Thereafter, 200 µL nutrient medium (5% BSA, v/v) were added. Next, 25 µL per well of solutions containing either nutrient medium (5% BSA, v/v) as control or the respective compound in increasing concentration (10^-10 - 10^-4 M), were added with subsequent addition of 25 µL [^177Lu]Lu-DOTA-PP-F11N (0.3 pmol/well).
All experiments were performed in triplicate for each concentration. After 3 h incubation at 37 °C, the experiment was terminated by removal of the medium and consecutive rinsing with 300 µL PBS. The media of both steps were combined in one fraction and represent the amount of free radiolabeled reference. Afterwards, the cells were lysed with 300 µL of 1 M NaOH for at least 15 min and united with the 300 µL NaOH of the following washing step. Quantification of bound and free radiolabeled reference was accomplished in a γ-counter. IC50 determination for each conjugate was repeated twice.

[1] = AR4-2J cells, ^natGa-labeled, read-out: IC50 [nM] (n = 3), ^natGa-labeled
[2] = AR4-2J cells, references ^natLu-labeled, other peptides without chelator, read-out: IC50 [nM] (n = 3)
[3] = AR4-2J cells, ^natLu-labeled, read-out: IC50 [nM] (n = 3), ^natLu-labeled

SMILES: CCCC[C@@H](C(=O)N[C@@H](CC(=O)O)C(=O)N[C@@H](Cc1cccc2ccccc12)C(N)=O)N(C)C(=O)[C@H](Cc1c[nH]c2ccccc12)NC(=O)CCOCCOCCOCCOCCNC(=O)CC[C@@H](NC(=O)CC[C@H](C(=O)O)N1CCN(CC(=O)O)CCN(CC(=O)O)CCN(CC(=O)O)CC1)C(=O)O [(R)-DOTAGA-CCK-66, (R)-DOTAGA-γ-glu-(PEG)3-Trp-(N-Me)Nle-Asp-1-Nal-NH2] ({X2-d(γGlu)-PEG4}-W[NMeNle]D[1Nal]-NH2)
IC50 [1]: 16 ± 2.1 nM

SMILES: CCCC[C@@H](C(=O)N[C@@H](CC(=O)O)C(=O)N[C@@H](Cc1cccc2ccccc12)C(N)=O)N(C)C(=O)[C@H](Cc1c[nH]c2ccccc12)NC(=O)CCOCCOCCOCCOCCNC(=O)CC[C@@H](NC(=O)CC[C@@H](C(=O)O)N1CCN(CC(=O)O)CCN(CC(=O)O)CCN(CC(=O)O)CC1)C(=O)O [(S)-DOTAGA-CCK-66, (S)-DOTAGA-γ-glu-(PEG)3-Trp-(N-Me)Nle-Asp-1-Nal-NH2] ({X5-d(γGlu)-PEG4}-W[NMeNle]D[1Nal]-NH2)
IC50 [1]: 17.9 ± 2.7 nM

SMILES: CCCC[C@H](NC(=O)[C@H](Cc1c[nH]c2ccccc12)NC(=O)CNC(=O)[C@H](Cc1ccc(O)cc1)NC(=O)[C@H](C)NC(=O)CC[C@@H](N)C(=O)O)C(=O)N[C@@H](CC(=O)O)C(=O)N[C@@H](CNC(=O)c1ccc([Si](F)(C(C)(C)C)C(C)(C)C)cc1)C(N)=O [CCK-48, H-γ-glu-Ala-Tyr-Gly-Trp-Nle-Asp-Dap(SiFA)-NH2] ({d(γGlu)}-AYGW[Nle]D[Dap](Benzoyl(4-SiFtBu2))-NH2)
IC50: > 10000 nM

SMILES: CCCC[C@@H](C(=O)N[C@@H](CC(=O)O)C(=O)N[C@@H](Cc1cccc2ccccc12)C(N)=O)N(C)C(=O)[C@H](Cc1c[nH]c2ccccc12)NC(=O)CCOCCOCCOCCOCCOCCNC(=O)CN1CCN(CC(=O)O)CCN(CC(=O)O)CCN(CC(=O)O)CC1 [DOTA-CCK-50, DOTA-(PEG)4-Trp-(N-Me)Nle-Asp-1-Nal-NH2] ({DOTA-PEG5}-W[NMeNle]D[1Nal]-NH2)
IC50 (text values without printed unit, ^natLu-labeled, read-out: IC50): 8.84 ± 1.25 nM

SMILES: CCCC[C@@H](C(=O)N[C@@H](CC(=O)O)C(=O)N[C@@H](Cc1cccc2ccccc12)C(N)=O)N(C)C(=O)[C@H](Cc1c[nH]c2ccccc12)NC(=O)CNC(=O)CNC(=O)CNC(=O)CNC(=O)CN1CCN(CC(=O)O)CCN(CC(=O)O)CCN(CC(=O)O)CC1 [DOTA-CCK-55, DOTA-(Gly)4-Trp-(N-Me)Nle-Asp-1-Nal-NH2] ({DOTA}-GGGGW[NMeNle]D[1Nal]-NH2)
IC50 [3]: 8.5 ± 1.2 nM

SMILES: CCCC[C@@H](C(=O)N[C@@H](CC(=O)O)C(=O)N[C@@H](Cc1cccc2ccccc12)C(N)=O)N(C)C(=O)[C@H](Cc1c[nH]c2ccccc12)NC(=O)CNC(=O)CN1CCN(CC(=O)O)CCN(CC(=O)O)CCN(CC(=O)O)CC1 [DOTA-CCK-58, DOTA-Gly-Trp-(N-Me)Nle-Asp-1-Nal-NH2] ({DOTA}-GW[NMeNle]D[1Nal]-NH2)
IC50 [3]: 98.9 ± 8.4 nM

SMILES: CCCC[C@@H](C(=O)N[C@@H](CC(=O)O)C(=O)N[C@@H](Cc1cccc2ccccc12)C(N)=O)N(C)C(=O)[C@H](Cc1c[nH]c2ccccc12)NC(=O)CNC(=O)CNC(=O)[C@H](C)NC(=O)CNC(=O)CN1CCN(CC(=O)O)CCN(CC(=O)O)CCN(CC(=O)O)CC1 [DOTA-CCK-61, DOTA-Gly-Ala-(Gly)2-Trp-(N-Me)Nle-Asp-1-Nal-NH2] ({DOTA}-GAGGW[NMeNle]D[1Nal]-NH2)
IC50 [3]: 9.7 ± 1.7 nM

More lines, now with the values ahead:

IC50 [2]: > 1000 nM
SMILES: CCCC[C@H](NC(=O)[C@H](Cc1c[nH]c2ccccc12)NC(=O)CNC(=O)[C@H](Cc1ccc(O)cc1)NC(=O)[C@H](C)NC(=O)CC[C@@H](N)C(=O)O)C(=O)N[C@@H](CC(=O)O)C(=O)N[C@@H](Cc1ccc(-c2ccccc2)cc1)C(N)=O [CCK-38, H-γ-glu-Ala-Tyr-Gly-Trp-Nle-Asp-Bip-NH2] ({d(γGlu)}-AYGW[Nle]D[Bip]-NH2)

IC50 [2]: 11.2 ± 0.2 nM
SMILES: CSCC[C@H](NC(=O)[C@H](Cc1c[nH]c2ccccc12)NC(=O)CNC(=O)[C@H](Cc1ccc(O)cc1)NC(=O)[C@H](C)NC(=O)[C@@H](CCC(=O)O)NC(=O)[C@@H](CCC(=O)O)NC(=O)[C@@H](CCC(=O)O)NC(=O)[C@@H](CCC(=O)O)NC(=O)[C@@H](CCC(=O)O)NC(=O)[C@@H](CCC(=O)O)NC(=O)CN1CCN(CC(=O)O)CCN(CC(=O)O)CCN(CC(=O)O)CC1)C(=O)N[C@@H](CC(=O)O)C(=O)N[C@@H](Cc1ccccc1)C(N)=O [CP04, DOTA-glu^1-glu^2-glu^3-glu^4-glu^5-glu^6-Ala^7-Tyr^8-Gly^9-Trp^10-Met^11-Asp^12-Phe^13-NH2, reference compound]
